# Results taken from PMC12203697, “Bioactive constituents from the edible seaweed Halymenia hawaiiana (Rhodophyta)” (Pharmaceutical Biology, 2025).
# Read-outs that look alike come from different tables or passages of the source.
# Assays:
# [1] = test system: A549 human lung carcinoma epithelial cells; experiment: SRB cytotoxicity assay, A549 cells; details: SRB assay; for cytotoxic response against A549 cells (in words): 72 h, highest concentration tested 100 µg/ml
# Experimental: After incubation, cells were fixed with trichloroacetic acid (Cat. No. T4885, Sigma-Aldrich, USA), stained with SRB (Cat. No. S9012, Sigma-Aldrich, USA), and the absorbance was measured at 515 nm. Percent cell death was calculated using the following equation: % Cell death=(ODc−OD0)‐(ODs−OD0)/(ODc−OD0)×100
# OD0 = Optical density of cells before treatment (baseline reading).
# ODC = Optical density of untreated control cells after 72 h.
# ODS = Optical density of cells treated with the test sample after 72 h.
# Non-linear regression analysis was performed using GraphPad Prism to calculate the IC50 value. This value reflects the concentration needed to inhibit cell growth by 50%.
# All data are presented as mean ± standard error of the mean (SEM) and were collected from three separate experiments. Statistical analyses were conducted using Student’s t-test or ANOVA, followed by Tukey’s multiple comparisons test. Significance is indicated by *p < 0.05, **p < 0.01, and ***p < 0.001.
# [2] = Ferric-reducing antioxidant power (FRAP) assay
# Experimental: The FRAP assay was used to evaluate antioxidant activity based on the ability of the sample to reduce Fe^3+-TPTZ (2,4,6-tris(2-pyridyl)-S-triazine) to Fe^2+-TPTZ (Benzie and Strain [1996]). This reduction results in a color change from colorless to blue. The absorbance was measured at 593 nm using a Microplate Reader (BioTek ELx800 Instruments Inc. Winooski, Vermont, USA) with the Gen 5 software for FRAP value calculations. A ferrous sulfate heptahydrate (FeSO4 · 7H2O) (Cat. No. 215422, Sigma-Aldrich, USA) standard curve, ranging from 1000 µM to 50 µM, was prepared for the assay. The FRAP reagent consists of 300 mM sodium acetate buffer (pH 3.6) (Cat. No. 90358, Sigma-Aldrich, USA), 10 mM TPTZ solution (Cat. No. T1253, Sigma-Aldrich, USA), and 20 mM ferric (III) chloride hexahydrate (FeCl3 · 6H2O) (Cat. No. 236489, Sigma-Aldrich, USA) in a 10:1:1 ratio, respectively, and heated to 37 °C for ten minutes before use. A blank was measured at 593 nm with 150 µL FRAP reagent added to each well of a 96-well microtiter plate. Samples (20 µL of each sample) (1, 0.5, 0.25 mg/mL) and ascorbic acid (Sigma-Aldrich, Cat. No. A4403) positive control (1 mg/mL) were added in triplicates. Reducing capacity was expressed by FRAP values in an µM FeSO4/µg sample unit.
# MRSA HBP10 = experiment: Antibacterial MIC, broth microdilution with resazurin; assay type: cell-based, Staphylococcus aureus; details: MRSA HBP10, Gram-positive
# Excerpt: (§1) Methicillin-resistant Staphylococcus aureus (MRSA), methicillin-susceptible S. aureus (MSSA), and Gram-negative clinical isolates of bacteria [Escherichia coli (9637) and Serratia marcescens ATCC 13880] were used for this study. […] MSSA HBP10, MSSA LUU7, MSSA R113, S. aureus ONE9, and MSSA POB2 were isolated in Hawaiʻi (Gerken et al. [2021]). Mueller Hinton Broth (MHB, GTIN:00382902979630, Becton, Dickinson and Company, Franklin Lakes, NJ, USA) and Mueller Hinton Agar (MHA, GTIN:00382902252504, Becton, Dickinson and Company, Franklin Lakes, NJ, USA,) were used for bacterial inoculation. MRSA was a pathogen strain causing hospital-acquired infections in 1982. This strain easily acquires resistance to antibiotics, such as vancomycin. MSSA strains isolated from the Island of Hawaiʻi included: Honolʻii Beach Park (HBP10) carry the genes erm(C), aph(3′)-III, and mecA, which provide resistance to macrolide, aminoglycoside, and beta-lactam antibiotics, respectively; Wailuku River (LUU7) which contains the blaZ gene (beta-lactam resistance) (Gerken et al. [2021]). Richardson’s Beach Park (R113) and Onekahakaha (ONE9) which is known for its virulence factors (hlgA, hlgB, hlgC, lukD, and lukE).
# (§2) The minimum inhibitory concentrations (MICs) were determined using a two-fold serial dilution method with MHB following the recommendations of the Clinical and Laboratory Standards Institute (CLSI [2012]; Elshikh et al. [2016]). In brief, serial two-fold dilutions of the samples in DMSO were mixed with MHB in a 96-well microplate. Then, 50 µL of bacteria suspension was added to each well, resulting in a final concentration of 1 × 10^4 colony-forming units/well. The plates were incubated at 35–37 °C for 18–24 hr. After incubation, 10 µL of 0.18% resazurin (Cat. No. R7017, Sigma-Aldrich, USA) was added to each well (Elshikh et al. [2016]). The MIC was assessed within 2–3 hr after the addition of resazurin. All antimicrobial assays were performed in triplicate, using vancomycin (Cat. No. SBR00001, Sigma-Aldrich, USA) and gentamicin (Cat. No. G1397, Sigma-Aldrich, USA) as standard controls.
# MRSA POB2 = experiment: as above; assay type: cell-based, Staphylococcus aureus; details: MRSA POB2, Gram-positive
# Excerpt: as §1, §2
# S. marcescent = experiment: as above; assay type: cell-based, Serratia marcescens; details: Gram-negative
# Excerpt: as §1, §2
# E. coli = experiment: as above; assay type: cell-based; details: Escherichia coli, Gram-negative
# Excerpt: as §1, §2
# [3] = test system: LPS-induced nitric oxide (NO) production in RAW 264.7 cells; experiment: Inhibition of NO generation in LPS-induced RAW 264.7 cells (Griess); assay type: cell-based, murine; details: RAW 264.7 cells, LPS-induced, highest concentration 50 μg/mL
# Experimental: The nitrite concentration in the culture medium was measured to indicate nitric oxide (NO) production as previously described (Min et al. [2009]). The murine macrophage RAW 264.7 cell line was obtained from ATCC, Manassas, VA, USA, and maintained in Dulbecco’s modified Eagle’s medium supplemented with 10% heat-inactivated FBS (Cat. No. A5670801, Gibco BRL Co, Grand Island, NY, USA), penicillin G (100 units/mL) (Cat. No. P7794, Sigma-Aldrich, USA), streptomycin (100 µg/mL) (Cat. No. S9137, Sigma-Aldrich, USA), and L-glutamine (2 mM) (Cat. No. 25030081, Gibco BRL Co, Grand Island, NY, USA). In brief, RAW 264.7 cells were seeded at a density of 4 × 10^4 cells/well in phenol red-free media (Cat. No. 11835030, Gibco, USA) in a 96-well plate, and incubated in a humidified incubator with 5% CO2 at 37 °C for 24 hr. […] The concentration of nitric oxide production was assessed using the Griess reagent, which consists of a 1:1 (v/v) mixture of 1% sulfanilamide (Cat No. A13001, Alfa Aesar, Massachusetts, USA) in H3PO4 and N-(1-naphthyl)ethylenediamine dihydrochloride (Cat. No. 102397, MP Biomedicals, USA). Absorbance was recorded with a microplate reader (SynergyMx, BioTeK, Winooski, VT, USA) at 540 nm. A standard curve was created using sodium nitrite (1–100 μM) (Cat. No. 44227, Alfa Aesar, Massachusetts, USA). A sulforhodamine B (SRB) assay was employed to assess the cellular viability of the samples with RAW 264.7 cells under a similar experimental setup. The final % inhibition of NO production was adjusted based on cell viability.
# S. aureus CART817 = experiment: Antibacterial MIC, broth microdilution with resazurin; assay type: cell-based; details: Staphylococcus aureus; S. aureus CART817, Gram-positive; read-out: MIC
# Experimental: as §2
# S. aureus NEWMAN = experiment: as above; assay type: cell-based, Staphylococcus aureus; details: Staphylococcus aureus; S. aureus NEWMAN, Gram-positive; read-out: MIC
# Excerpt: as §1, §2
# MRSA USA300 = experiment: as above; assay type: cell-based; details: Staphylococcus aureus; MRSA USA300, Gram-positive; read-out: MIC
# Excerpt: as §1, §2
# MSSA LUU7 = experiment: as above; assay type: cell-based; details: Staphylococcus aureus; MSSA LUU7, Gram-positive; read-out: MIC
# Excerpt: as §1, §2
# MSSA R113 = experiment: as above; assay type: cell-based; details: Staphylococcus aureus; MSSA R113, Gram-positive; read-out: MIC
# Excerpt: as §1, §2
# S. aureus 8325-4 = experiment: as above; assay type: cell-based; details: Staphylococcus aureus, 83254; S. aureus 8325-4, Gram-positive; read-out: MIC
# Excerpt: as §1, §2
# S. aureus ONE9 = experiment: as above; assay type: cell-based; details: Staphylococcus aureus; S. aureus ONE9, Gram-positive; read-out: MIC
# Excerpt: as §1, §2
# [4] = Serratia marcescens, read-out: MIC
# [5] = Staphylococcus aureus, read-out: MIC
MIC (MRSA HBP10),MIC (MRSA POB2),MIC (S. marcescent),SMILES,cytotoxic response against A549 cells (in words) [1],FRAP ([2]; FeSO4 standard curve),FRAP ([2]; µM FeSO4/µg sample),MIC (E. coli),MIC (S. marcescent; [4]),further results
–,–,–,"N.N.[Cl][Pt][Cl] [cisplatin, Cisplatin, reference compound]",–,–,–,–,–,"IC50 ([1]; read-out: IC50, cytotoxicity against A549 cells, 72 h exposure): 4.2 ± 0.3 µM"
Inactive,Inactive,Inactive,"CCCCCCCCCCCCCCCC(C)=O [Compound 4, 2-heptadecanone]",–,–,–,–,–,–
–,–,–,"CNC(C)C1CCC(N)C(OC2C(N)CC(N)C(OC3OCC(C)(O)C(NC)C3O)C2O)O1 (stereo not drawn) [Gentamicin, gentamicin, reference compound]",–,–,–,0.25 µg/mL,0.25 µg/mL,–
Inactive,Inactive,Inactive,"CCCCCCCCCCCCCCCC(=O)OC [Compound 6, methyl palmitate]",–,499.40 µM,6.24 ± 0.07 µM/µg,–,–,–
–,–,–,"Nc1ncnc2c1ncn2[C@H]1C[C@H](O)[C@@H](CO)O1 [Compound 2, deoxyadenosine]",no cytotoxic response,–,–,128 µg/mL,64 µg/mL,NO inhibitory activity (in words) [3]: no significant NO inhibitory activity; MIC (S. aureus CART817): 128 µg/mL; MIC (MRSA HBP10; [5]): 128 µg/mL; MIC (MRSA POB2; [5]): 128 µg/mL; MIC (S. aureus NEWMAN): 128 µg/mL; MIC (MRSA USA300): 128 µg/mL; MIC (MSSA LUU7): 128 µg/mL; MIC (MSSA R113): 128 µg/mL; MIC (S. aureus 8325-4): 128 µg/mL; MIC (S. aureus ONE9): 128 µg/mL

SMILES,MIC (MRSA HBP10),MIC (MRSA POB2),MIC (S. marcescent),cytotoxic response against A549 cells (in words) [1],FRAP ([2]; FeSO4 standard curve),FRAP ([2]; µM FeSO4/µg sample),MIC (E. coli),MIC (S. marcescent; [4]),further results
"CCCCCCCCCCCCCCCC(=O)O [Compound 5, palmitic acid]",Inactive,Inactive,Inactive,inactive,88.06 µM,1.10 ± 0.02 µM/µg,–,–,–
